The record followed here is patent US20230295157A1, “3-(1H-IMIDAZOL-2-YL)-2,3,8,8A-TETRAHYDROINDOLIZIN-5(1H)-ONE DERIVATIVES USEFUL AS FACTOR XIA INHIBITORS” (JANSSEN PHARMACEUTICA NV, priority 2020, published 2023).

One assay concerns the target Factor XIa (Homo sapiens (Human), UniProt P03951). The assay can be described thus: Factor XIa inhibition assay (FLINT) utilizing a fluorophore-quencher pair peptide substrate. The following applies: 30 min preincubation, read-out: FXIa Kin Inh IC50; for pIC50: kinetic reads over 30 min. Format: biochemical. An outline of the steps: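 FXIa ([…]) preincubated 30 min with compound (11-point 3-fold dilution, top 100 nM, 2% DMSO), then 15 μM quenched FXI Arg146-based peptide added; Tris pH 7.5, CaCl2, BSA, CHAPS. Fluorescence 485/520 nm read kinetically every 5 min over 30 min at RT; IC50 by 4-parameter fit.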

The next assay concerns the target human plasma kallikrein (Homo sapiens (Human), UniProt P03952). The assay is described as follows: Kallikrein inhibition assay (FLINT) utilizing a quenched AMC peptide substrate. Format: biochemical. The following applies: 30 min preincubation, kinetic reads over 30 min, Z-Gly-Pro-Arg-AMC substrate 50 μM; read-out: Kallikrein Kin Inh IC50. The procedure, abridged: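 Enzyme (2 nM final) pre-incubated 30 min at room temperature with compound (11-point, 3-fold, top 1 μM, 2% DMSO), then 50 μM Z-Gly-Pro-Arg-AMC added in Tris pH 7.5 buffer. Kinetic fluorescence 340/440 nm every 5 min over 30 min; IC50 from 4-parameter logistic fit.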

The mark [1] stands for this setting: 5Fam-[…]-K5Tamra substrate 15 μM.

Each structure is given as a SMILES string. pIC50: −log10 of the molar value. Like-named read-outs stand apart in the source and are kept apart here. A value given as a limit tells only on which side of the number the result lay.

Factor XIa, sequence (P03951 388-625): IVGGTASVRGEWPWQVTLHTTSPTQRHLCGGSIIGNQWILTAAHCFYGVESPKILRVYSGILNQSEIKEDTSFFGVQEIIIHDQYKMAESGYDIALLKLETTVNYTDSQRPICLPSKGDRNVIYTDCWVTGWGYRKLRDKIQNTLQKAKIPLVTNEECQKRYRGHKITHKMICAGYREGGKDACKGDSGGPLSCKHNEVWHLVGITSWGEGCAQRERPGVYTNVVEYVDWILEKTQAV
Factor XIa, sequence (P03951 19-387 partner): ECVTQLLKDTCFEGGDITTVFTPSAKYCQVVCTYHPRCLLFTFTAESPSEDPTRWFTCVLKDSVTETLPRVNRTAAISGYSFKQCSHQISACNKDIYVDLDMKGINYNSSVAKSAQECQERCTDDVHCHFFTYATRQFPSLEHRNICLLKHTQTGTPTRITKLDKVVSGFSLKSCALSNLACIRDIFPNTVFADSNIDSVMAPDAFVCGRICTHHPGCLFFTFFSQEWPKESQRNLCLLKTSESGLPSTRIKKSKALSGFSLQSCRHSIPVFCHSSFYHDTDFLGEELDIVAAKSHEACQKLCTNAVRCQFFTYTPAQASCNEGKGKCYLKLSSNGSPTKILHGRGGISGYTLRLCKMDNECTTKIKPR
human plasma kallikrein, sequence (P03952 391-638): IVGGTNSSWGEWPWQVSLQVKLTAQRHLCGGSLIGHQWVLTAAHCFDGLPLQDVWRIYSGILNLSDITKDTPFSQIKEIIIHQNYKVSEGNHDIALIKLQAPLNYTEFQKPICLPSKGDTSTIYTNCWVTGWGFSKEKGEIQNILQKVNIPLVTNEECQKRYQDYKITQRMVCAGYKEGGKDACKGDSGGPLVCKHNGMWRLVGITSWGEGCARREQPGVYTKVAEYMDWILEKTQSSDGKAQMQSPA
human plasma kallikrein, sequence (P03952 20-390 partner): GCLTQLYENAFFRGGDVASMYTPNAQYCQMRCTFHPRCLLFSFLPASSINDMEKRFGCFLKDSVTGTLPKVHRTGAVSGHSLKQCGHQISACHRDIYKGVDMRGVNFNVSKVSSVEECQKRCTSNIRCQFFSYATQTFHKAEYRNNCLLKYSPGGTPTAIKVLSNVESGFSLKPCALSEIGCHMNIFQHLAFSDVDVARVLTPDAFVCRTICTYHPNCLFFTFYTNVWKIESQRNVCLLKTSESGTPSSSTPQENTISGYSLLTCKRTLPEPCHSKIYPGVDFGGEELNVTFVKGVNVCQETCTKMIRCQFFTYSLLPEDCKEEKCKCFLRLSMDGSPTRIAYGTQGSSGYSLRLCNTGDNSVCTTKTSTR

For `CCC(=O)Nc1ccccc1-c1c[nH]c([C@@H]2CC[C@H]3CC(c4c(-n5cnnn5)ccc(Cl)c4F)=CC(=O)N32)n1` (relative stereo) [Example 296, N-(2-(24(3S,8aS*)-7-(3-Chloro-2-fluoro-6-(1H-tetrazol-1-yl)phenyl)-5-oxo-1,2,3,5,8,8a-hexahydroindolizin-3-yl)-1H-imidazol-4-yl)phenyl)propionamide], the results for the pIC50 at Factor XIa (5Fam-KLTRAETV-K5Tamra substrate 15 μM) and on human plasma kallikrein were 9.22 and 8.27, respectively.

Consider `Cn1c(=O)[nH]c2ccc(-c3cnc([C@@H]4CC[C@H]5CC(c6c(-n7cnnn7)ccc(Cl)c6F)=CC(=O)N54)[nH]3)cc21` (relative stereo) [Example 299, 6-(2-((3S,8aS*)-7-(3-Chloro-2-fluoro-6-(1H-tetrazol-1-yl)phenyl)-5-oxo-1,2,3,5,8,8a-hexahydroindolizin-3-yl)-1H-imidazol-5-yl)-1-methyl-1H-benzo[d]imidazol-2(3H)-one], for which the negative-log IC50 (pIC50) is 8.28 on Factor XIa (setting [1]) and 8.25 at human plasma kallikrein.

On to `Cn1c(=O)[nH]c2ccc(-c3cnc([C@@H]4CC[C@@H]5CC(c6c(-n7cnnn7)ccc(Cl)c6F)=CC(=O)N54)[nH]3)cc21` (relative stereo) [Example 300, 6-(2-((3S,8aR*)-7-(3-Chloro-2-fluoro-6-(1H-tetrazol-1-yl)phenyl)-5-oxo-1,2,3,5,8,8a-hexahydroindolizin-3-yl)-1H-imidazol-5-yl)-1-methyl-1H-benzo[d]imidazol-2(3H)-one], for which the pIC50 on Factor XIa (setting [1]) is 8.85; at human plasma kallikrein, 8.70.

Regarding `COC(=O)Nc1ccccc1-c1cnc([C@@H]2CC[C@@H]3CC(c4c(-n5cnnn5)ccc(Cl)c4F)=CC(=O)N32)[nH]1` (relative stereo) [Example 301, Methyl 2-(2-((3S,8aR*)-7-(3-chloro-2-fluoro-6-(1H-tetrazol-1-yl)phenyl)-5-oxo-1,2,3,5,8,8a-hexahydroindolizin-3-yl)-1H-imidazol-4-yl)phenylcarbamate], the negative-log IC50 (pIC50) is 8.51 on Factor XIa (setting [1]) and 7.75 on human plasma kallikrein.

On to `COC(=O)Nc1ccccc1-c1cnc([C@@H]2CC[C@H]3CC(c4c(-n5cnnn5)ccc(Cl)c4F)=CC(=O)N32)[nH]1` (relative stereo) [Example 302, Methyl 2-(24(3S,8aS*)-7-(3-chloro-2-fluoro-6-(1H-tetrazol-1-yl)phenyl)-5-oxo-1,2,3,5,8,8a-hexahydroindolizin-3-yl)-1H-imidazol-4-yl)phenylcarbamate], for which the pIC50 at Factor XIa (setting [1]) is 7.98; on human plasma kallikrein it was 7.54.

For the compound `Cn1c(=O)[nH]c2cc(-c3cnc([C@@H]4CC[C@@H]5CC(c6c(-n7cnnn7)ccc(Cl)c6F)=CC(=O)N54)[nH]3)ccc21` (relative stereo) [Example 303, 5-(24(3S,8aR*)-7-(3-Chloro-2-fluoro-6-(1H-tetrazol-1-yl)phenyl)-5-oxo-1,2,3,5,8,8a-hexahydroindolizin-3-yl)-1H-imidazol-5-yl)-1-methyl-1H-benzo[d]imidazol-2(3H)-one], the pIC50 on Factor XIa (setting [1]) was 9.05; on human plasma kallikrein, 8.36.

Consider `Cn1cc(-c2ccccc2NC(=O)C2CC2)nc1[C@@H]1CC[C@H]2CC(c3c(-n4cnnn4)ccc(Cl)c3F)=CC(=O)N21` (relative stereo) [Example 304, N-(2-(2-((3S,8aS*)-7-(3-Chloro-2-fluoro-6-(1H-tetrazol-1-yl)phenyl)-5-oxo-1,2,3,5,8,8a-hexahydroindolizin-3-yl)-1-methyl-1H-imidazol-4-yl)phenyl)cyclopropanecarboxamide], for which the pIC50 on Factor XIa (setting [1]) was < 7.00; at human plasma kallikrein, 6.49.

With `CC(C)C(=O)Nc1ccccc1-c1cnc([C@@H]2CC[C@@H]3CC(c4c(-n5cnnn5)ccc(Cl)c4F)=CC(=O)N32)[nH]1` (relative stereo) [Example 305, N-(2-(2-((3S,8aR*)-7-(3-Chloro-2-fluoro-6-(1H-tetrazol-1-yl)phenyl)-5-oxo-1,2,3,5,8,8a-hexahydroindolizin-3-yl)-1H-imidazol-4-yl)phenyl)isobutyramide], the negative-log IC50 (pIC50) was 9.15 on Factor XIa (setting [1]) and 8.77 on human plasma kallikrein.

`CC(=O)Nc1ccccc1-c1cnc([C@@H]2CC[C@H]3CC(c4c(-n5cnnn5)ccc(Cl)c4F)=CC(=O)N32)[nH]1` (relative stereo) [Example 306, N-(2-(24(3S,8aS*)-7-(3-Chloro-2-fluoro-6-(1H-tetrazol-1-yl)phenyl)-5-oxo-1,2,3,5,8,8a-hexahydroindolizin-3-yl)-1H-imidazol-4-yl)phenyl)acetamide]: the values for the negative logarithm of the IC50 (pIC50) at Factor XIa (setting [1]) and at human plasma kallikrein were 9.30 and 7.93, respectively.

Consider `Nc1ccccc1-c1cnc([C@@H]2CC[C@H]3CC(c4c(-n5cnnn5)ccc(Cl)c4F)=CC(=O)N32)[nH]1` (relative stereo) [Example 308, (3S,8aS*)-3-(4-(2-Aminophenyl)-1H-imidazol-2-yl)-7-(3-chloro-2-fluoro-6-(1H-tetrazol-1-yl)phenyl)-2,3,8,8a-tetrahydroindolizin-5(1H)-one], for which the negative-log IC50 (pIC50) at Factor XIa (setting [1]) was 7.03; on human plasma kallikrein it was < 7.00.

Regarding `Nc1ccccc1-c1cnc([C@@H]2CC[C@@H]3CC(c4c(-n5cnnn5)ccc(Cl)c4F)=CC(=O)N32)[nH]1` (relative stereo) [Example 310, (3S,8aR*)-3-(4-(2-Aminophenyl)-1H-imidazol-2-yl)-7-(3-chloro-2-fluoro-6-(1H-tetrazol-1-yl)phenyl)-2,3,8,8a-tetrahydroindolizin-5(1H)-one], the pIC50 at Factor XIa (setting [1]) is 7.47; on human plasma kallikrein it was < 7.00.

`COC(=O)Nc1ccc(-c2cnc([C@@H]3CC[C@H]4CC(c5c(F)ccc(Cl)c5OC(F)F)=CC(=O)N43)[nH]2)cc1` (relative stereo) [Example 319, Methyl (4-(2-((3S,8aS)-7-(3-Chloro-2-(difluoromethoxy)-6-fluorophenyl)-5-oxo-1,2,3,5,8,8a-hexahydroindolizin-3-yl)-1H-imidazol-5-yl)phenyl)carbamate]: the IC50 on Factor XIa (μM, kinetic reads) was 2.2 µM. Further, the pIC50 on human plasma kallikrein is 6.34.

On to `COC(=O)Nc1ccc(-c2cnc([C@@H]3CC[C@H]4CC(c5c(OC(F)F)ccc(Cl)c5F)=CC(=O)N43)[nH]2)cc1` (relative stereo) [Example 320, Methyl (4-(2-((3S,8aS)-7-(3-Chloro-6-(difluoromethoxy)-2-fluorophenyl)-5-oxo-1,2,3,5,8,8a-hexahydroindolizin-3-yl)-1H-imidazol-5-yl)phenyl)carbamate], for which the negative logarithm of the IC50 (pIC50) is 7.63 at Factor XIa (setting [1]) and 8.42 on human plasma kallikrein.

Regarding `O=C1C=C(c2c(-n3cnnn3)ccc(Cl)c2F)C[C@@H]2CC[C@@H](c3ncc(-c4cc[n+]([O-])cc4)[nH]3)N12` (relative stereo) [Example 321, 4-(2-((3S,8aS)-7-(3-Chloro-2-fluoro-6-(1H-tetrazol-1-yl)phenyl)-5-oxo-1,2,3,5,8,8a-hexahydroindolizin-3-yl)-1H-imidazol-5-yl)pyridine 1-oxide], the pIC50 on Factor XIa (setting [1]) was 7.10; at human plasma kallikrein, 6.47.

Consider `COC(=O)Nc1ccc(-c2cnc([C@@H]3CC[C@H]4CC(c5c(-n6cnnn6)ccc(Cl)c5F)=CC(=O)N43)[nH]2)nc1` (relative stereo) [Example 322, Methyl (6-(2-((3S,8aS)-7-(3-Chloro-2-fluoro-6-(1H-tetrazol-1-yl)phenyl)-5-oxo-1,2,3,5,8,8a-hexahydroindolizin-3-yl)-1H-imidazol-5-yl)pyridin-3-yl)carbamate], for which the negative logarithm of the IC50 (pIC50) on Factor XIa (setting [1]) was 9.10; on human plasma kallikrein it was 7.99.

Regarding `CC1(C)C[C@@H](c2ncc(-c3ccc(N)nc3Cl)[nH]2)N2C(=O)C=C(c3c(-n4cnnn4)ccc(Cl)c3F)C[C@@H]21` (relative stereo) [Example 335, (3S,8aR)-3-(5-(6-Amino-2-chloropyridin-3-yl)-1H-imidazol-2-yl)-7-(3-chloro-2-fluoro-6-(1H-tetrazol-1-yl)phenyl)-1,1-dimethyl-2,3,8,8a-tetrahydroindolizin-5(1H)-one], the values for the pIC50 on Factor XIa (setting [1]) and on human plasma kallikrein were 8.24 and 7.64, respectively.

With `CC1(C)C[C@@H](c2ncc(-c3ccc(N)nc3F)[nH]2)N2C(=O)C=C(c3c(-n4cnnn4)ccc(Cl)c3F)C[C@@H]21` (relative stereo) [Example 336, (3S,8aR)-3-(5-(6-Amino-2-fluoropyridin-3-yl)-1H-imidazol-2-yl)-7-(3-chloro-2-fluoro-6-(1H-tetrazol-1-yl)phenyl)-1,1-dimethyl-2,3,8,8a-tetrahydroindolizin-5(1H)-one], the results for the pIC50 on Factor XIa (setting [1]) and on human plasma kallikrein were 8.03 and 7.32, respectively.

In the case of `CC1(C)C[C@@H](c2ncc(-c3ccc(N)nc3F)[nH]2)N2C(=O)C=C(c3c(-n4cnnn4)ccc(Cl)c3F)C[C@H]21` (relative stereo) [Example 337, (3S,8aS)-3-(5-(6-Amino-2-fluoropyridin-3-yl)-1H-imidazol-2-yl)-7-(3-chloro-2-fluoro-6-(1H-tetrazol-1-yl)phenyl)-1,1-dimethyl-2,3,8,8a-tetrahydroindolizin-5(1H)-one], the pIC50 is 8.82 on Factor XIa (setting [1]) and 7.90 on human plasma kallikrein.

Turning to `CC1(C)C[C@@H](c2ncc(-c3ccc(N)nc3Cl)[nH]2)N2C(=O)C=C(c3c(-n4cnnn4)ccc(Cl)c3F)C[C@H]21` (relative stereo) [Example 338, (3S,8aS)-3-(5-(6-Amino-2-chloropyridin-3-yl)-1H-imidazol-2-yl)-7-(3-chloro-2-fluoro-6-(1H-tetrazol-1-yl)phenyl)-1,1-dimethyl-2,3,8,8a-tetrahydroindolizin-5(1H)-one], the pIC50 on Factor XIa (setting [1]) is 9.00; at human plasma kallikrein, 8.08.

By pIC50 is commonly meant the IC50 on a negative log10 scale, so that one unit is a factor of ten. One may read the IC50 as the concentration that gives 50% inhibition.
